Results published in patent US20240269139A1, “COMPOUNDS FOR TARGETED PROTEIN DEGRADATION OF KINASES” (DANA-FARBER CANCER INSTITUTE, INC., priority 2020, published 2024).
Values joined by “and” are separate entries in the source; they are usually repeats but may differ in a detail not shown here. Equal entries are not always repeated. Where two headings read alike, the source gives them in different places.

Experiments:
Type in all cases: cell-based
[1] = target: T1, protein kinases (human kinome) (Homo sapiens, UniProt O75385); conditions: for logFC: ULK1 (O75385) protein abundance, degrader vs DMSO, down; for logFC ULK1: ULK1 O75385
T1 sequence (O75385 1-1050): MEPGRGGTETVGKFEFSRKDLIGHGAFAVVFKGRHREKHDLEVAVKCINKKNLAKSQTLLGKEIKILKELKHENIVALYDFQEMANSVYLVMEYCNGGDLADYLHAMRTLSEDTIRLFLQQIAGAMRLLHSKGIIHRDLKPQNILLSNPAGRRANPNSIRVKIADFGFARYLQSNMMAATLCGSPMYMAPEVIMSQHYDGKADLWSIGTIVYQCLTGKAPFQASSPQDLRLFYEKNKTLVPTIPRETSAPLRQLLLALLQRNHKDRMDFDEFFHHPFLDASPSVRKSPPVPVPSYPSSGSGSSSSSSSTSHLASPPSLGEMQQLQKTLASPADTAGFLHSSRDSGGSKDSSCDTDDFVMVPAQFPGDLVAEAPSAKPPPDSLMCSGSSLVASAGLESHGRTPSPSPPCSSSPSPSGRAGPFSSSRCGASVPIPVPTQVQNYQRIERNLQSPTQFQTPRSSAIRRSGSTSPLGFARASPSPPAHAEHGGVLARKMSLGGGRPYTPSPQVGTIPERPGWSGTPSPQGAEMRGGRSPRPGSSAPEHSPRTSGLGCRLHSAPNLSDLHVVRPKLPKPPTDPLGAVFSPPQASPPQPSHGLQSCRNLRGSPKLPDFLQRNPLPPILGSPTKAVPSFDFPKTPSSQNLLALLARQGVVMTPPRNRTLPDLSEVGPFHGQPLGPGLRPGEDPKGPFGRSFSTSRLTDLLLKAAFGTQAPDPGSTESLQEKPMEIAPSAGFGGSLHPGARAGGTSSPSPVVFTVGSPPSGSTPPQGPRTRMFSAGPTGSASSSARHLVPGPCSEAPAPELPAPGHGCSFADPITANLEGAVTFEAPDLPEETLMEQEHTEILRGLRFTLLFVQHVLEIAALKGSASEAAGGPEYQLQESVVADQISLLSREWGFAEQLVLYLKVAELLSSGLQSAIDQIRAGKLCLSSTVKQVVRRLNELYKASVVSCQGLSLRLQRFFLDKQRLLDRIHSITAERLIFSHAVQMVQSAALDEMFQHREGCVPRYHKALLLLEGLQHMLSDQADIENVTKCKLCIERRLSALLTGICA

[2] = target: protein kinases (human kinome) (Homo sapiens, UniProt P30291); conditions: for logFC of WEE1: WEE1 P30291-1
[3] = target: protein kinases (human kinome) (Homo sapiens, UniProt Q9H0K1); conditions: for logFC of SIK2: Accession Q9H0K1; for logFC SIK2 (Q9H0K1): direction of change down
[4] = test system: protein kinases (human kinome); conditions: for logFC ABL1: ABL1 (P00519-2); for logFC / logFC AURKB: AURKB Q96GD4-5; for logFC of SRC: Accession P12931-2; for logFC CSNK1D: Accession P48730-2; for logFC CDK12: Accession Q9NYV4-2

Sequence of protein kinases (human kinome) (Homo sapiens, UniProt P30291) (P30291 whole entry): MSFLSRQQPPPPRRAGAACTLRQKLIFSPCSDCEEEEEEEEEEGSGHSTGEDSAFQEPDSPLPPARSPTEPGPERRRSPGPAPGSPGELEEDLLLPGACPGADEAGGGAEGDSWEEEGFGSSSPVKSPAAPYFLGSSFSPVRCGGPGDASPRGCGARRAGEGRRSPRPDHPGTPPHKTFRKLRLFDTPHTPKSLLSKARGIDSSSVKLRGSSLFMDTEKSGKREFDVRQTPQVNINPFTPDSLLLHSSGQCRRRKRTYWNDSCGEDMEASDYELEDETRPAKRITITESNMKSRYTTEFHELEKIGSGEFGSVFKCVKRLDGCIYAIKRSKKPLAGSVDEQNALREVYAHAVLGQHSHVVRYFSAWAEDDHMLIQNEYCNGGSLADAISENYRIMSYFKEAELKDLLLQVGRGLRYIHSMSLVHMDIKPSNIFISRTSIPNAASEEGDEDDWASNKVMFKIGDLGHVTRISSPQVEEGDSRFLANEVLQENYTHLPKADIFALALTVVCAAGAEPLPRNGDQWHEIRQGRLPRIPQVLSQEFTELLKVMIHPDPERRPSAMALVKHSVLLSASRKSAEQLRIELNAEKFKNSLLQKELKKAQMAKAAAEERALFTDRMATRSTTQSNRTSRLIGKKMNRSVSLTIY
Sequence of protein kinases (human kinome) (Homo sapiens, UniProt Q9H0K1) (Q9H0K1 whole entry): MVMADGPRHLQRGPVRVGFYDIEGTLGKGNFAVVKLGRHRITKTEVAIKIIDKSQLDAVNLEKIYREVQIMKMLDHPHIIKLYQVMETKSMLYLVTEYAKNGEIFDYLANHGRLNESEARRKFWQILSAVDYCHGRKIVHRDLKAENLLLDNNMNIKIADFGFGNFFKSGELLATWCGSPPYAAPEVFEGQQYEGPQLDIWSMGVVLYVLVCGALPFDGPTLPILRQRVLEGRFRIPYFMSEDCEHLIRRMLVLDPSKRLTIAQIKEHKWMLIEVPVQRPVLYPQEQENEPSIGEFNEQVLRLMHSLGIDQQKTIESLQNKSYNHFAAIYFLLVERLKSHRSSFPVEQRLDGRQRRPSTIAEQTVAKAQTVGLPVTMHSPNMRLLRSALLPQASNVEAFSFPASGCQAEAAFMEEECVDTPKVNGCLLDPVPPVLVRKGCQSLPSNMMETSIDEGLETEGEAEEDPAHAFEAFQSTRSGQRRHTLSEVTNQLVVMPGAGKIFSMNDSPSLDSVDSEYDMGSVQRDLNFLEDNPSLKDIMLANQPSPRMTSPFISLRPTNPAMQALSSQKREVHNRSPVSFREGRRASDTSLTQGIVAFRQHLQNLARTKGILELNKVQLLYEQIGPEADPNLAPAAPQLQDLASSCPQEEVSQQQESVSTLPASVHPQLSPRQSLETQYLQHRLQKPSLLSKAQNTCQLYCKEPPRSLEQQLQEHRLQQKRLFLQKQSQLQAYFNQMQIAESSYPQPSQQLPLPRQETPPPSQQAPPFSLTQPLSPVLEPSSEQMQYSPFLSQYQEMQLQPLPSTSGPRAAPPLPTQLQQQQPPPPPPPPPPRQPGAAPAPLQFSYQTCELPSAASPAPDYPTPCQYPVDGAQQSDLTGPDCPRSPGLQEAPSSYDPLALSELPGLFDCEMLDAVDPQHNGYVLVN

## CC(C)S(=O)(=O)c1ccccc1Nc1nc(Nc2ccc(N3CCN(CCOCCNC(=O)CNc4cccc5c4C(=O)N(C4CCC(=O)NC4=O)C5=O)CC3)cc2)ncc1Cl (stereo not shown) [SK.3.91]
[1]; 1 hr
  logFC: −1.472 and −1.466
[1]; 2 hr
  logFC: −2.779 and −2.583
[1]; experiment wp103
  logFC ULK1: −1.332
[1]; experiment wp105
  logFC ULK1: −1.712
[1]; experiment wp107
  logFC ULK1: −1.162
[1]; experiment wp133, 1 hr
  logFC ULK1: −1.472
[1]; experiment wp133, 2 hr
  logFC ULK1: −2.779
[1]; experiment wp133, 4 hr
  logFC ULK1: −3.572
[1]; experiment wp160, 1 hr
  logFC ULK1: −1.466
[1]; experiment wp160, 2 hr
  logFC ULK1: −2.583
[1]; experiment wp160, 4 hr
  logFC ULK1: −3.085
[2]; Experiment wp160, 2 hr
  logFC WEE1 (P30291-1): −1.201
[2]; Experiment wp172
  logFC WEE1 (P30291-1): −0.6853
[2]; experiment wp103
  logFC of WEE1: −1.371
  logFC WEE1 (P30291-1): −1.371
[2]; experiment wp105
  logFC of WEE1: −1.229
  logFC WEE1 (P30291-1): −1.229
[2]; experiment wp107
  logFC of WEE1: −2.329
  logFC WEE1 (P30291-1): −2.329
[2]; experiment wp133, 1 hr
  logFC of WEE1: −0.4866
  logFC WEE1 (P30291-1): −0.4866
[2]; experiment wp133, 2 hr
  logFC of WEE1: −1.21
  logFC WEE1 (P30291-1): −1.21
[2]; experiment wp133, 4 hr
  logFC of WEE1: −2.314
  logFC WEE1 (P30291-1): −2.314
[2]; experiment wp160, 1 hr
  logFC of WEE1: −0.5503
  logFC WEE1 (P30291-1): −0.5503
[2]; experiment wp160, 2 hr
  logFC of WEE1: −1.201
[2]; experiment wp160, 4 hr
  logFC of WEE1: −1.994
  logFC WEE1 (P30291-1): −1.994
[2]; experiment wp172
  logFC of WEE1: −0.6853
[2]; experiment wp016
  logFC WEE1 (P30291-1): −1.278
[2]; experiment wp016, 1 uM
  logFC WEE1 (P30291-1): −2.684
[3]; experiment wp105
  logFC of SIK2: −0.5386
[3]; experiment wp107
  logFC of SIK2: −1.568
  logFC SIK2 (Q9H0K1): −1.568
[3]; experiment wp114
  logFC of SIK2: −0.5757
[3]; experiment wp133, 2 hr
  logFC of SIK2: −0.4938
  logFC SIK2 (Q9H0K1): −0.4938
[3]; experiment wp133, 4 hr
  logFC of SIK2: −1.035
  logFC SIK2 (Q9H0K1): −1.035
[3]; experiment wp160, 2 hr
  logFC of SIK2: −0.5413
  logFC SIK2 (Q9H0K1): −0.5413
[3]; experiment wp160, 4 hr
  logFC of SIK2: −0.8364
  logFC SIK2 (Q9H0K1): −0.8364
[3]; Experiment wp105
  logFC SIK2 (Q9H0K1): −0.5386
[3]; Experiment wp114
  logFC SIK2 (Q9H0K1): −0.5757
[4]; experiment wp016, 1 uM
  logFC ABL1: −0.3875
  logFC of SRC: −0.8428
[4]; experiment wp105
  logFC ABL1: −0.333
  logFC: −0.7004
  logFC AURKB: −0.7004
  logFC of SRC: −0.3464
[4]; experiment wp107
  logFC ABL1: −0.4711
  logFC: −0.443
  logFC AURKB: −0.443
  logFC of SRC: −0.7782
  logFC CDK12: −1.042
[4]; experiment wp133, 4 hr
  logFC ABL1: −0.3801
  logFC: −0.8007
  logFC AURKB: −0.8007
  logFC of SRC: −0.6408
[4]; experiment wp103
  logFC: −0.3966
  logFC AURKB: −0.3966
  logFC of SRC: −0.5004
[4]; experiment wp133, 1 hr
  logFC: −0.4923
  logFC AURKB: −0.4923
[4]; experiment wp133, 2 hr
  logFC: −0.5333
  logFC AURKB: −0.5333
[4]; Accession O60566-3, experiment wp016, 1 uM, direction down
  logFC BUB1B: −0.4685
[4]; Accession O60566-3, experiment wp103, direction down
  logFC BUB1B: −0.3983
[4]; Accession O60566-3, experiment wp107, direction down
  logFC BUB1B: −0.5037
[4]; Accession O60566-3, experiment wp133, 1 hr, direction down
  logFC BUB1B: −0.4083
[4]; Accession O60566-3, experiment wp133, 2 hr, direction down
  logFC BUB1B: −0.4195
[4]; Accession O60566-3, experiment wp133, 4 hr, direction down
  logFC BUB1B: −0.5871
[4]; experiment wp016
  logFC of SRC: −0.3847
[4]; experiment wp114, direction down
  logFC CSNK1D: −0.3991
[4]; experiment wp160, 4 hr, direction down
  logFC CSNK1D: −0.3373
[4]; experiment wp160, 2 hr
  logFC CDK12: −0.4558
[4]; experiment wp160, 4 hr
  logFC CDK12: −0.8448
[4]; BUB1B (O60566-3), experiment wp016, 1 uM
  logFC BUB1B: −0.4685
[4]; BUB1B (O60566-3), experiment wp103
  logFC BUB1B: −0.3983
[4]; BUB1B (O60566-3), experiment wp107
  logFC BUB1B: −0.5037
[4]; BUB1B (O60566-3), experiment wp133, 1 hr
  logFC BUB1B: −0.4083
[4]; BUB1B (O60566-3), experiment wp133, 2 hr
  logFC BUB1B: −0.4195
